Tests used:
Type in all cases: functional
[1] = tested on: MOLT-4; test: Growth inhibition of human MOLT-4 cells assessed as cell growth at 0.01 uM incubated for 48 hrs by sulforhodamine B assay relative to control; settings: read-out: Activity
[2] = tested on: EKVX; test: Growth inhibition of human EKVX cells assessed as cell growth at 0.01 uM incubated for 48 hrs by sulforhodamine B assay relative to control; settings: read-out: Activity
[3] = tested on: HCC 2998; test: Growth inhibition of human HCC 2998 cells assessed as cell growth at 0.01 uM incubated for 48 hrs by sulforhodamine B assay relative to control; settings: read-out: Activity
[4] = tested on: HCT-116; test: Growth inhibition of human HCT-116 cells assessed as cell growth at 0.01 uM incubated for 48 hrs by sulforhodamine B assay relative to control; settings: read-out: Activity
[5] = tested on: KM12; test: Growth inhibition of human KM12 cells assessed as cell growth at 0.01 uM incubated for 48 hrs by sulforhodamine B assay relative to control; settings: read-out: Activity
[6] = tested on: NCI/ADR-RES; test: Growth inhibition of human NCI/ADR-RES cells assessed as cell growth at 0.01 uM incubated for 48 hrs by sulforhodamine B assay relative to control; settings: read-out: Activity
[7] = tested on: ACHN; test: Growth inhibition of human ACHN cells assessed as cell growth at 0.01 uM incubated for 48 hrs by sulforhodamine B assay relative to control; settings: read-out: Activity
[8] = tested on: CAKI-1; test: Growth inhibition of human CAKI-1 cells assessed as cell growth at 0.01 uM incubated for 48 hrs by sulforhodamine B assay relative to control; settings: read-out: Activity
[9] = tested on: T47D; test: Growth inhibition of human T47D cells assessed as cell growth at 0.01 uM incubated for 48 hrs by sulforhodamine B assay relative to control; settings: read-out: Activity
[10] = tested on: CCRF-CEM; test: Growth inhibition of human CCRF-CEM cells assessed as cell growth at 0.1 uM incubated for 48 hrs by sulforhodamine B assay relative to control; settings: read-out: Activity
[11] = tested on: Malme-3M; test: Growth inhibition of human Malme-3M cells assessed as cell growth at 0.1 uM incubated for 48 hrs by sulforhodamine B assay relative to control; settings: read-out: Activity
[12] = tested on: SK-OV-3; test: Growth inhibition of human SK-OV-3 cells assessed as cell growth at 0.1 uM incubated for 48 hrs by sulforhodamine B assay relative to control; settings: read-out: Activity
[13] = tested on: CAKI-1; test: Growth inhibition of human CAKI-1 cells assessed as cell growth at 0.1 uM incubated for 48 hrs by sulforhodamine B assay relative to control; settings: read-out: Activity
[14] = tested on: HL-60(TB); test: Growth inhibition of human HL-60(TB) cells assessed as cell growth at 1 uM incubated for 48 hrs by sulforhodamine B assay relative to control; settings: read-out: Activity
[15] = tested on: A549; test: Growth inhibition of human A549/ATCC cells assessed as cell growth at 1 uM incubated for 48 hrs by sulforhodamine B assay relative to control; settings: read-out: Activity
[16] = tested on: HOP-62; test: Growth inhibition of human HOP-62 cells assessed as cell growth at 1 uM incubated for 48 hrs by sulforhodamine B assay relative to control; settings: read-out: Activity
[17] = tested on: NCI-H226; test: Growth inhibition of human NCI-H226 cells assessed as cell growth at 1 uM incubated for 48 hrs by sulforhodamine B assay relative to control; settings: read-out: Activity
[18] = tested on: SF-268; test: Growth inhibition of human SF-268 cells assessed as cell growth at 1 uM incubated for 48 hrs by sulforhodamine B assay relative to control; settings: read-out: Activity
[19] = tested on: SF-295; test: Growth inhibition of human SF-295 cells assessed as cell growth at 1 uM incubated for 48 hrs by sulforhodamine B assay relative to control; settings: read-out: Activity
[20] = tested on: OVCAR-4; test: Growth inhibition of human OVCAR-4 cells assessed as cell growth at 1 uM incubated for 48 hrs by sulforhodamine B assay relative to control; settings: read-out: Activity
[21] = tested on: TK-10; test: Growth inhibition of human TK-10 cells assessed as cell growth at 1 uM incubated for 48 hrs by sulforhodamine B assay relative to control; settings: read-out: Activity
[22] = tested on: MCF7; test: Growth inhibition of human MCF7 cells assessed as cell growth at 1 uM incubated for 48 hrs by sulforhodamine B assay relative to control; settings: read-out: Activity
[23] = tested on: RPMI-8226; test: Growth inhibition of human RPMI-8226 cells assessed as cell growth at 100 uM incubated for 48 hrs by sulforhodamine B assay relative to control; settings: read-out: Activity
[24] = tested on: SF-539; test: Growth inhibition of human SF-539 cells assessed as cell growth at 100 uM incubated for 48 hrs by sulforhodamine B assay relative to control; settings: read-out: Activity
[25] = tested on: Malme-3M; test: Growth inhibition of human Malme-3M cells assessed as cell growth at 100 uM incubated for 48 hrs by sulforhodamine B assay relative to control; settings: read-out: Activity
[26] = tested on: MCF7; test: Growth inhibition of human MCF7 cells assessed as cell growth at 100 uM incubated for 48 hrs by sulforhodamine B assay relative to control; settings: read-out: Activity
[27] = tested on: Hs-578T; test: Growth inhibition of human Hs-578T cells assessed as cell growth at 100 uM incubated for 48 hrs by sulforhodamine B assay relative to control; settings: read-out: Activity
[28] = tested on: RPMI-8226; test: Growth inhibition of human RPMI-8226 cells incubated for 48 hrs by sulforhodamine B assay
[29] = tested on: NCI-H23; test: Growth inhibition of human NCI-H23 cells incubated for 48 hrs by sulforhodamine B assay
[30] = tested on: SK-MEL-2; test: Growth inhibition of human SK-MEL-2 cells incubated for 48 hrs by sulforhodamine B assay
[31] = tested on: SK-MEL-5; test: Growth inhibition of human SK-MEL-5 cells incubated for 48 hrs by sulforhodamine B assay
[32] = tested on: UACC-62; test: Growth inhibition of human UACC-62 cells incubated for 48 hrs by sulforhodamine B assay
[33] = tested on: UO-31; test: Growth inhibition of human UO-31 cells incubated for 48 hrs by sulforhodamine B assay
[34] = tested on: MDA-MB-231; test: Growth inhibition of human MDA-MB-231 cells incubated for 48 hrs by sulforhodamine B assay
[35] = read-out: LC50 (the source's name)
[36] = read-out: pLC50 (the source's name) (converted)

`CC(=O)Nc1cc(CCl)cc(NC(=O)c2ccc(C(=O)Nc3cccc(NC(=O)CCCN(C)C)c3)cc2)c1` showed a growth at 0.01 µM [1] of 102%, a growth at 0.01 µM [2] of 93% and a growth at 0.01 µM [3] of 102%. For the same molecule, the growth at 0.01 µM [4] was 109%, the growth at 0.01 µM [5] was 105% and the growth at 0.01 µM [6] was 105%. The growth at 0.01 µM [7] was 105%, the growth at 0.01 µM [8] was 100% and the growth at 0.01 µM [9] was 106%. It also gave a growth at 0.1 µM [10] of 113%, a growth at 0.1 µM [11] of 104% and a growth at 0.1 µM [12] of 103%. It also gave a growth at 0.1 µM [13] of 98%, a growth at 1 µM [14] of 99% and a growth at 1 µM [15] of 94%. The growth at 1 µM [16] was 102%, the growth at 1 µM [17] was 91% and the growth at 1 µM [18] was 101%. It also gave a growth at 1 µM [19] of 70%, a growth at 1 µM [20] of 91% and a growth at 1 µM [21] of 102%. For the same molecule, the growth at 1 µM [22] was 81%, the growth at 100 µM [23] was 107% and the growth at 100 µM [24] was 112%. The growth at 100 µM [25] was 80%, the growth at 100 µM [26] was 27% and the growth at 100 µM [27] was 107%. For the same molecule, the GI50 ([28]; read-out: GI50) was > 100 µM, the CC50 [28, 35] was > 100 µM and the TGI ([28]; read-out: TGI) was > 100 µM. For the same molecule, the GI50 ([28]; read-out: pGI50 (converted)) was > 100 µM, the CC50 [28, 36] was > 100 µM and the TGI ([28]; read-out: pTGI) was > 100 µM. For the same molecule, the GI50 ([29]; read-out: GI50) was > 100 µM, the CC50 [29, 35] was > 100 µM and the TGI ([29]; read-out: TGI) was > 100 µM. The GI50 ([29]; read-out: pGI50 (converted)) was > 100 µM, the CC50 [29, 36] was > 100 µM and the TGI ([29]; read-out: pTGI) was > 100 µM. The GI50 ([30]; read-out: GI50) was > 100 µM, the CC50 [30, 35] was > 100 µM and the TGI ([30]; read-out: TGI) was > 100 µM. For the same molecule, the GI50 ([30]; read-out: pGI50 (converted)) was > 100 µM, the CC50 [30, 36] was > 100 µM and the TGI ([30]; read-out: pTGI) was > 100 µM. The GI50 ([31]; read-out: GI50) was > 100 µM, the LC50 ([31]; read-out: LC50) was > 100 µM and the TGI ([31]; read-out: TGI) was > 100 µM. The GI50 ([31]; read-out: pGI50 (converted)) was > 100 µM, the LC50 ([31]; read-out: pLC50 (converted)) was > 100 µM and the TGI ([31]; read-out: pTGI) was > 100 µM. The GI50 ([32]; read-out: GI50) was > 100 µM, the CC50 [32, 35] was > 100 µM and the TGI ([32]; read-out: TGI) was > 100 µM. For the same molecule, the GI50 ([32]; read-out: pGI50 (converted)) was > 100 µM, the CC50 [32, 36] was > 100 µM and the TGI ([32]; read-out: pTGI) was > 100 µM. The GI50 ([33]; read-out: GI50) was > 100 µM, the CC50 [33, 35] was > 100 µM and the TGI ([33]; read-out: TGI) was > 100 µM. For the same molecule, the GI50 ([33]; read-out: pGI50 (converted)) was > 100 µM, the CC50 [33, 36] was > 100 µM and the TGI ([33]; read-out: pTGI) was > 100 µM. For the same molecule, the GI50 ([34]; read-out: GI50) was > 100 µM, the CC50 [34, 35] was > 100 µM and the TGI ([34]; read-out: TGI) was > 100 µM. For the same molecule, the GI50 ([34]; read-out: pGI50 (converted)) was > 100 µM, the CC50 [34, 36] was > 100 µM and the TGI ([34]; read-out: pTGI) was > 100 µM.
